In US10577363B2, “Substituted piperidine compounds” (EPIZYME, INC., priority 2014, dated 2020):

How the values were obtained:
SMYD3 [1] = target: T1, SMYD3 (Homo sapiens (Human), UniProt Q9H7B4); assay: SMYD3 biochemical assay (SPA, 3H-SAM methylation of MEKK2 protein substrate)
How it was run: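 Enzyme: untagged full-length human SMYD3 from E. coli; substrate GST-tagged MEKK2 from insect cells. Buffer 25 mM Tris-Cl pH 8.0, 1 mM TCEP, 0.005% BSG/Tween 20. 30 min compound–enzyme preincubation at RT; 3H-SAM/MEKK2 start; stop with cold SAM (100 uM final); SPA readout in cpm.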

SMYD3 [2] = target: T1, SMYD3; assay: SMYD3 cell assay (Trimethyl-MEKK2 In-Cell Western in 293T/17 cells); type: cell-based
Description: Trimethyl-MEKK2-in-Cell Western Assay
MEM/Glutamax medium, Optimem Reduced Serum medium, penicillin-streptomycin, 0.05% trypsin and 1×D-PBS were purchased from Life Technologies, Grand Island, N.Y., USA. PBS-10× was purchased from Ambion, Life Technologies, Grand Island, N.Y., USA. PBS with Tween 20 (PBST (10×)) was purchased from KPL, Gaithersburg, Md., USA. Tet System FBS-approved FBS US Source was purchased from Clontech, Mountain View, Calif., USA. Odyssey blocking buffer, 800CW goat anti-rabbit IgG (H+L) antibody, 680CW Goat anti-mouse IgG (H+L) and Licor Odyssey infrared scanner were purchased from Licor Biosciences, Lincoln, Nebr., USA. Tri-methyl-Lysine [A260]-MEKK2 antibody, MEKK2 and SMYD3 plasmids were made at Epizyme. Anti-flag monoclonal mouse antibody was purchased from Sigma, St. Louis, Mo., USA. Methanol was purchased from VWR, Franklin, Mass., USA. 10% Tween 20 was purchased from KPL, Inc., Gaithersburg, Md., USA. Fugene was purchased from Promega, Madison, Wis., USA. The Biotek ELx405 was purchased from BioTek, Winooski, Vt., USA. The multidrop combi was purchased from Thermo Scientific, Waltham, Mass., USA.
Cell Treatment, in Cell Western (ICW) for Detection of Trimethyl-Lysine-MEKK2 and MEKK2.
Plasmids were prepared for delivery to cells by first mixing 1350 μL Opti-MEM with Fugene (81 μL) in a sterile Eppendorf and incubated for five minutes at room temperature (RT). […] Entire volume of Opti-MEM/Fugene mixture was then added to a microfuge tube containing DNA plasmid, mixed and then incubated×15 minutes at RT. […] Medium was then removed, and cells were washed once with PBS in the flask. Trypsin 0.05% (3 mL) was added and cells incubated for three minutes. Room temperature MEM+10% Tet system FBS was added and cells were mixed gently, and counted using the Vi-cell. Cells were seeded at 100,000 cells/mL in 50 μL MEM/10% Tet FBS/Pen/Strep to a 384 well black/clear poly-D-lysine coated plate containing test agent diluted in DMSO. The final top concentration of test compound was 40 μM. […] Plates were incubated×30 minutes at RT in low-airflow area, followed by incubation at 37° C. under 5% CO2 for 24 hours. Medium was aspirated from all wells of assay plates prior to fixation and permeabilization with ice cold (−20° C.) methanol (90 μL/well) for ten minutes. Plates were rinsed with PBS three times on BioTek ELx405. PBS was removed with a final aspiration, and Odyssey blocking buffer (50 μL/well) was added to each well and incubated for one hour at RT. Primary antibody solution was prepared (anti-trimethyl-MEKK2 at 1:600 dilution plus mouse anti-flag antibody at 1:10,000 dilution in diluent (Odyssey Blocking buffer+0.1% Tween 20)) and 20 μL per well was dispensed using the Multidrop Combi. Assay plates were then sealed with foil, and incubated overnight at 4° C. Plates were washed five times with PBS-Tween (1×) on Biotek ELx405 and blotted on paper towel to remove excess reagent.
First, the ratio for each well was determined by:
Each plate included fourteen control wells of DMSO only treatment (Minimum Inhibition) as well as fourteen control wells for maximum inhibition (Background). The average of the ratio values for each control type was calculated and used to determine the percent inhibition for each test well in the plate. Reference compound was serially diluted two-fold in DMSO for a total of nine test concentrations, beginning at 40 μM.
Percent inhibition was calculated (below).
Non-linear regression curves were generated to calculate the IC50 and dose-response relationship using triplicate wells per concentration of compound.

[3] = Table 2A, read-out: SMYD3 Biochem IC50
[4] = Table 2A, read-out: SMYD3 Cell IC50
[5] = read-out: SMYD3 Biochem IC50 (μM)*
[6] = read-out: SMYD3 Cell IC50 (μM)*

T1 sequence (Q9H7B4 whole entry): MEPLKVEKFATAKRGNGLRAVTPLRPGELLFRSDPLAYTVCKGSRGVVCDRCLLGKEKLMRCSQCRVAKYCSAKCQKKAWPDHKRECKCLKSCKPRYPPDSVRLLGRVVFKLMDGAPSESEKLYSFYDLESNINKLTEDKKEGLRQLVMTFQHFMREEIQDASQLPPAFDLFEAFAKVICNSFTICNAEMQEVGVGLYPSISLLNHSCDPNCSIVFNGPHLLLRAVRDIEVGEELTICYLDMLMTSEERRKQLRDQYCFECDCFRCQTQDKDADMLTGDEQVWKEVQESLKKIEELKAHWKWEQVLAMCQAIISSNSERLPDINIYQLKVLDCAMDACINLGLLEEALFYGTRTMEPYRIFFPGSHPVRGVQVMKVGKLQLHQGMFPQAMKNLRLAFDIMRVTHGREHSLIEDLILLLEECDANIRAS

| Structure (SMILES) | IC50 (SMYD3 [1]; [5]) [µM] | IC50 (SMYD3 [2]; [6]) [µM] | other results |
| --- | --- | --- | --- |
| O=C(N[C@H]1C[C@H]2CC[C@@H](C1)N2S(=O)(=O)N1CC2(CCNCC2)C1)c1cc(C2CC2)on1 [Cpd. No. 559, N-((1R,3r,5S)-8-(2,7-diazaspiro[3.5]nonan-2-ylsulfonyl)-8-azabicyclo[3.2.1]octan-3-yl)-5-cyclopropylisoxazole-3-carboxamide 2,2,2-trifluoroacetate] | – | – | IC50 (SMYD3 [1]; [3]): 0.0047 µM; IC50 (SMYD3 [2]; [4]): 0.0319 µM |
| CCc1cc(C(=O)N[C@H]2C[C@H]3CC[C@@H](C2)N3S(=O)(=O)CC2CCNCC2)no1 [Cpd. No. 562, 5-ethyl-N-((1R,3r,5S)-8-(piperidin-4-ylmethylsulfonyl)-8-aza-bicyclo[3.2.1]octan-3-yl)isoxazole-3-carboxamide] | – | – | IC50 (SMYD3 [1]; [3]): 0.0052 µM; IC50 (SMYD3 [2]; [4]): 0.0615 µM |
| CN1CCC(CS(=O)(=O)N2[C@@H]3CC[C@H]2C[C@@H](NC(=O)c2cc(C4CC4)on2)C3)CC1 [Cpd. No. 770, 5-cyclopropyl-N-((1S,3r,5R)-8-((l-methylpiperidin-4-yl)methylsulfonyl)-8-aza-bicyclo[3.2.1]octan-3-yl)isoxazole-3-carboxamide] | – | – | IC50 (SMYD3 [1]; read-out: SMYD3 Biochem IC50*): 0.00088 µM; IC50 (SMYD3 [2]; read-out: SMYD3 Cell IC50*): 0.0192 µM |
| N[C@@H](Cc1ccc(O)c(I)c1)C(=O)N1CCC(NC(=O)c2cc(C3CC3)on2)CC1 [compound 5, (S)-N-(1-(2-amino-3-(4-hydroxy-3-iodophenyl)propanoyl)piperidin-4-yl)-5-cyclopropylisoxazole-3-carboxamide] | 0.116 | 0.809 | – |
| NC[C@@H](Cc1ccccc1)C(=O)N1CCC(NC(=O)c2cc(C3CC3)on2)CC1 [compound 10, (R)-N-(1-(3-amino-2-benzylpropanoyl)piperidin-4-yl)-5-cyclopropylisoxazole-3-carboxamide] | 0.319 | 1.82 | – |
| NC[C@H](Cc1ccc(O)c(I)c1)C(=O)N1CCC(NC(=O)c2cc(C3CC3)on2)CC1 [compound 29, (S)-N-(1-(3-amino-2-(4-hydroxy-3-iodobenzyl)propanoyl)piperidin-4-yl)-5-cyclopropylisoxazole-3-carboxamide] | 0.0423 | 1.1 | – |
| CC1CN(S(=O)(=O)CCCN)CCC1NC(=O)c1cc(C2CC2)on1 (centres unmarked) [compound 46, N-(1-((3-aminopropyl)sulfonyl)-3-methylpiperidin-4-yl)-5-cyclopropylisoxazole-3-carboxamide] | 0.119 | – | IC50 (SMYD3 [2]): 1.02 µM |
| NC[C@@H](Cc1ccc(O)c(Cl)c1)C(=O)N1CCC(NC(=O)c2cc(C3CC3)on2)CC1 [compound 63, (R)-N-(1-(3-amino-2-(3-chloro-4-hydroxybenzyl)propanoyl)piperidin-4-yl)-5-cyclopropylisoxazole-3-carboxamide] | 0.139 | 1.44 | – |
| C[C@@H]1CN(S(=O)(=O)CCN)CCC1NC(=O)c1cc(C2CC2)on1 (stereo partly drawn) [compound 65, N-((3R)-1-((2-aminoethyl)sulfonyl)-3-methylpiperidin-4-yl)-5-cyclopropylisoxazole-3-carboxamide] | 0.205 | 1.05 | – |
| N[C@H]1CC[C@H](C(=O)N2[C@@H]3CC[C@H]2C[C@@H](NC(=O)c2cc(C4CC4)on2)C3)CC1 [compound 102, N-((1R,3R,5S)-8-((1r,4R)-4-aminocyclohexane-1-carbonyl)-8-azabicyclo[3.2.1]octan-3-yl)-5-cyclopropylisoxazole-3-carboxamide] | 0.106 | 1.7 | – |

More lines, main results first:

| IC50 (SMYD3 [1]; [5]) [µM] | IC50 (SMYD3 [2]; [6]) [µM] | Structure (SMILES) | other results |
| --- | --- | --- | --- |
| 0.172 | 3.18 | C[C@H]1C[C@H](NC(=O)c2cc(C3CC3)on2)CCN1C(=O)CC1CCNCC1 [compound 56, 5-cyclopropyl-N-((2S,4R)-2-methyl-1-(2-(piperidin-4-yl)acetyl)piperidin-4-yl)isoxazole-3-carboxamide] | – |
| 0.0716 | 0.947 | C[C@@H]1C[C@H](NC(=O)c2cc(C3CC3)on2)CCN1C(=O)[C@H]1CC[C@H](N)CC1 [compound 57, N-((2R,4R)-1-((1r,4R)-4-aminocyclohexane-1-carbonyl)-2-methylpiperidin-4-yl)-5-cyclopropylisoxazole-3-carboxamide] | – |
| 0.59 | 3.72 | C[C@H]1CN(S(=O)(=O)CCN)CCC1NC(=O)c1cc(C2CC2)on1 (stereo partly drawn) [compound 66, N-((3S)-1-((2-aminoethyl)sulfonyl)-3-methylpiperidin-4-yl)-5-cyclopropylisoxazole-3-carboxamide] | – |
| 0.633 | 2.91 | C[C@@H]1CC(NC(=O)c2cc(C3CC3)on2)CCN1S(=O)(=O)CCN (stereo partly drawn) [compound 77, N-((2R)-1-((2-aminoethyl)sulfonyl)-2-methylpiperidin-4-yl)-5-cyclopropylisoxazole-3-carboxamide] | – |
| 0.155 | 0.792 | C[C@H]1CC(NC(=O)c2cc(C3CC3)on2)CCN1S(=O)(=O)CCN (stereo partly drawn) [compound 78, N-((2S)-1-((2-aminoethyl)sulfonyl)-2-methylpiperidin-4-yl)-5-cyclopropylisoxazole-3-carboxamide] | – |
| 0.156 | 2.5 | N[C@H]1CC[C@H](C(=O)N2CC3CCC2CC3NC(=O)c2cc(C3CC3)on2)CC1 (some centres unmarked) [compound 88, N-(2-((1r,4r)-4-aminocyclohexane-1-carbonyl)-2-azabicyclo[2.2.2]octan-5-yl)-5-cyclopropylisoxazole-3-carboxamide] | – |
| 0.23 | 3.05 | CC(C)C1CC(NC(=O)c2cc(C3CC3)on2)CCN1C(=O)[C@H]1CC[C@H](N)CC1 (some centres unmarked) [compound 99, N-(1-((1r,4r)-4-aminocyclohexane-1-carbonyl)-2-isopropylpiperidin-4-yl)-5-cyclopropylisoxazole-3-carboxamide] | – |
| 0.0968 | 1.93 | O=C(NC1CCN(C(=O)CC2CCNCC2)C(Cc2ccccc2)C1)c1cc(C2CC2)on1 (centres unmarked) [compound 109, N-(2-benzyl-1-(2-(piperidin-4-yl)acetyl)piperidin-4-yl)-5-cyclopropylisoxazole-3-carboxamide] | – |
| 0.0994 | 0.893 | CC[C@@H]1CC(NC(=O)c2cc(C3CC3)on2)CCN1C(=O)[C@H]1CC[C@H](N)CC1 (stereo partly drawn) [compound 110, N-((2R)-1-((1r,4R)-4-aminocyclohexane-1-carbonyl)-2-ethylpiperidin-4-yl)-5-cyclopropylisoxazole-3-carboxamide] | – |
| 0.208 | 1.35 | C[C@@H]1CC(NC(=O)c2cc(C3CC3)on2)CCN1C(=O)[C@H]1CC[C@H](N)CO1 (stereo partly drawn) [compound 118, N-((2R)-1-((2R,5S)-5-aminotetrahydro-2H-pyran-2-carbonyl)-2-methylpiperidin-4-yl)-5-cyclopropylisoxazole-3-carboxamide] | – |
| 0.274 | 2.24 | CN[C@H]1CC[C@H](C(=O)N2CCC(NC(=O)c3cc(C4CC4)on3)C[C@H]2C)CC1 (stereo partly drawn) [compound 124, 5-cyclopropyl-N-((2R)-2-methyl-1-((1r,4R)-4-(methylamino)cyclohexane-1-carbonyl)piperidin-4-yl)isoxazole-3-carboxamide] | – |
| 0.282 | 1.81 | C[C@@H]1CN(C(=O)[C@H]2CC[C@H](N)CC2)CC[C@@H]1NC(=O)c1cc(C2CC2)on1 [compound 148, N-((3R,4S)-1-((1r,4R)-4-aminocyclohexane-1-carbonyl)-3-methylpiperidin-4-yl)-5-cyclopropylisoxazole-3-carboxamide] | – |
